Experimental data published in patent publication US8772321B2, “Heteroannelated anthraquinone derivatives for inhibiting cancers” (National Defense Medical Center, priority 2008, dated 2014).
Like-named read-outs stand apart in the source and are kept apart here.

How the values were obtained:
Assay type in all cases: cell-based
[1] = tested on: A498; assay: NCI 60-cell panel dose-response; settings: Homo sapiens; A498 (Renal cancer)
[2] = tested on: Stem Cell Factor (SCF); assay: SCF protein expression in cells
Description: To investigate whether NSC745885 down-regulates SCF in cancer cells, we treated bladder cancer cell (MBT2, T24) and normal epithelial cell (SV_HUC—1) with NSC745885 for 24 hours and then analyzed the SCF protein level.
We investigated NSC745885's effect on SCF expression in different cancer cells, including bladder cancer (MBT2, T24), breast cancer (MCF-7, MDA-MB-453), prostate cancer (PC3, LNCaP), kidney cancer (786-O), and kidney epithelial cell (293T). We treatment these different cancer cells with (+) or without (−) the NSC745885 (5 μM), and then analyzed SCF protein level.

[3] = tested on: NCI's 60 human cancer cell lines; assay: NCI 60-cell panel dose-response, whole panel

O=C1c2ccccc2C(=O)c2c1ccc1nsnc21 [NSC745885, anthra[2,1-c][1,2,5]thiadiazole-6,11-dione]
GI50 [1]: 12400 nM | SCF protein level ([2]; 5 μM, MBT2, T24, MCF-7, MDA-MB-453, PC3, LNCaP, 786-O, 293T): significantly decreased | SCF protein expression ([2]; MBT2, T24 and SV_HUC—1 cells, 24 hours, increasing concentrations): suppressed | GI50 ([3]; Homo sapiens, 60 cell, all cell lines of the panel, read-out: GI50, span over the 60-cell panel): 160 to 17400 nM | CC50 ([3]; Homo sapiens, 60 cell, as low as, over the panel, read-out: LC50, lowest in the 60-cell panel): ≥ 990 nM | GI50 ([3]; Homo sapiens, 60 cell, mean of the panel, read-out: GI50, mean over the 60-cell panel): 2040 nM | TGI, lowest in the 60-cell panel ([3]; as low as, over the panel): ≥ 400 nM
